Results reported in patent US9102614B2, “Naphth-2-ylacetic acid derivatives to treat AIDS” (Gilead Sciences, Inc., priority 2010, dated 2015).

These molecules were tested on HIV-IIIb (assay: Test A: Antiviral Assays in MT4 Cells). Details: Human immunodeficiency virus 1, IIIB, MT4, 120 h.
Type: cell-based
How it was run: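 MT-4 cells pre-infected with HIV-IIIb (0.004 m.o.i.) at 37 °C, then plated with 3-fold serially diluted compound (10 concentrations, quadruplicate, RPMI 1640/10% FBS). After 5 days at 37 °C, cell viability read by CellTiter-Glo chemiluminescence; mock-infected cells run in parallel.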

Q: Cc1cc2c(F)cc(F)cc2c(-c2ccc3c4c(ccnc24)CCO3)c1[C@H](OC(C)(C)C)C(=O)O [Compound 110, (S)-2-tert-Butoxy-2-((R)-1-(2,3-dihydropyrano[4,3,2-de]quinolin-7-yl)-5,7-difluoro-3-methylnaphthalen-2-yl)acetic acid] was tested. Which EC50 did it give?
A: The EC50 was 0.067 µM.

Same assay, conditions: Human immunodeficiency virus 1, IIIB, MT4, 120 h, MT-4 cells infected with HIV-IIIb (0.004 m.o.i.), 5 days of incubation, CellTiter-Glo chemiluminescence readout; read-out: EC50

Q: How did the EC50 turn out when Cc1cc2cc(-c3cn[nH]c3)ccc2c(-c2ccc(Cl)cc2)c1[C@H](OC(C)(C)C)C(=O)O [Compound 57, (S)-2-tert-Butoxy-2-(1-(4-chlorophenyl)-3-methyl-6-(1H-pyrazol-4-yl)naphthalen-2-yl)acetic acid] was run?
A: Its EC50 is 0.082 µM.

Q: For Cc1cc2cc(-c3cn(C)cn3)ccc2c(-c2ccc(Cl)cc2)c1[C@H](OC(C)(C)C)C(=O)O [Compound 64, (S)-2-tert-Butoxy-2-(1-(4-chlorophenyl)-3-methyl-6-(1-methyl-1H-imidazol-4-yl)naphthalen-2-yl)acetic acid], which EC50 is on record?
A: The EC50 was 0.052 µM.

Q: How did the EC50 turn out when Cc1c(C(OC(C)(C)C)C(=O)O)c(-c2ccc(Cl)cc2)c2ccccc2c1-c1cnc(N)nc1 (stereo not drawn) [Compound 145, 2-(4-(2-Aminopyrimidin-5-yl)-1-(4-chlorophenyl)-3-methylnaphthalen-2-yl)-2-tert-butoxyacetic acid] was run?
A: The EC50 was 0.05 µM.

Q: How did the EC50 turn out when Cc1cc2c(C#N)cc(F)cc2c(-c2ccc3c4c(ccnc24)CCO3)c1[C@H](OC(C)(C)C)C(=O)O (atropisomer, axis not shown) [Compound 154] was run?
A: The EC50 was 29 µM.

Q: For Cc1cc2cc(-c3ccc(Cl)cc3)ccc2c(-c2ccc(Cl)cc2)c1C(OC(C)(C)C)C(=O)O (stereo not drawn) [Compound 66, 2-(1,6-Bis(4-chlorophenyl)-3-methylnaphthalen-2-yl)-2-tert-butoxyacetic acid], which EC50 is on record?
A: Its EC50 is 0.29 µM.

Q: Cc1cc2ccc(C#CC(C)(C)N)cc2c(-c2ccc3c4c(ccnc24)CCO3)c1C(OC(C)(C)C)C(=O)O [Compound 86, (S)-2-((R)-7-(3-Amino-3-methylbut-1-ynyl)-1-(2,3-dihydropyrano[4,3,2-de]quinolin-7-yl)-3-methylnaphthalen-2-yl)-2-tert-butoxyacetic acid] was tested. Which EC50 did it give?
A: Its EC50 is 0.98 µM.

Q: C=Cc1c(C)c(C(OC(C)(C)C)C(=O)O)c(-c2ccc(Cl)cc2)c2ccccc12 (stereo not drawn) [Compound 128, 2-tert-Butoxy-2-(1-(4-chlorophenyl)-3-methyl-4-vinylnaphthalen-2-yl)acetic acid] was tested. Which EC50 did it give?
A: The EC50 was 5.3 µM.

Q: With Cc1cc2cc(-c3cnccn3)ccc2c(-c2ccc(Cl)cc2)c1[C@H](OC(C)(C)C)C(=O)O [Compound 60, (S)-2-tert-Butoxy-2-(1-(4-chlorophenyl)-3-methyl-6-(pyrazin-2-yl)naphthalen-2-yl)acetic acid] as the molecule, how does the EC50 read?
A: Its EC50 is 0.032 µM.

Same assay, conditions: MT-4 cells infected with HIV-IIIb (0.004 m.o.i.), 5 days of incubation, CellTiter-Glo chemiluminescence readout; read-out: EC50

Q: For Cc1ccc2c(-c3ccc4c5c(ccnc35)CCO4)c([C@H](OC(C)(C)C)C(=O)O)c(C)cc2c1 [Compound 68B, (S)-2-tert-Butoxy-2-((R)-1-(2,3-dihydropyrano[4,3,2-de]quinolin-7-yl)-3,6-dimethylnaphthalen-2-yl)acetic acid], which EC50 is on record?
A: Its EC50 is 0.005 µM.

Q: For Cc1cc2ccccc2c(-c2ccc(F)c3cccnc23)c1[C@H](OC(C)(C)C)C(=O)O [Compound 160], which EC50 is on record?
A: Its EC50 is 36 µM.

Q: Cc1cc2ccccc2c(-c2ccc(C(F)(F)F)c3cccnc23)c1[C@H](OC(C)(C)C)C(=O)O [Compound 7D, (S)-2-tert-butoxy-2-((R)-3-methyl-1-(5-(trifluoromethyl)quinolin-8-yl)naphthalen-2-yl)acetic acid] was tested. Which EC50 did it give?
A: Its EC50 is 1.7 µM.
